In ChEMBL document CHEMBL5113537, “Discovery of β-Arrestin-Biased 25CN-NBOH-Derived 5-HT2A Receptor Agonists” (J Med Chem, 2022):
Activity calls are given as the source filed them. The calls are words filed in the database; no cut-off is given here.

What was measured:
Homo sapiens [1] = species: Homo sapiens; assay: (§1) Selectivity ratio of EC50 for agonist activity at human 5HT2A S159A mutant transfected in HEK293T cells assessed as mini Galphaq recruitment measured for 2 hrs by luminescent assay to EC50 for agonist activity at human wild type 5HT2A transfected in HEK293T cells assessed as mini Galphaq recruitment measured for 2 hrs by luminescent assay; type: cell-based
Homo sapiens [2] = species: Homo sapiens; assay: as §1, with “assessed as beta arrestin-2 recruitment measured” for “assessed as mini Galphaq recruitment measured”, “type 5HT2A receptor transfected in” for “type 5HT2A transfected in”; type: cell-based
[3] = target: 5-hydroxytryptamine receptor 2A (Homo sapiens) (UniProt P28223); assay: Agonist activity at wild type human 5HT2A transfected in HEK293T cells assessed as beta arrestin-2 recruitment measured for 2 hrs by luminescent assay; type: functional, cell-based; settings: filed as agonist
Sequence of 5-hydroxytryptamine receptor 2A (Homo sapiens) (P28223 whole entry): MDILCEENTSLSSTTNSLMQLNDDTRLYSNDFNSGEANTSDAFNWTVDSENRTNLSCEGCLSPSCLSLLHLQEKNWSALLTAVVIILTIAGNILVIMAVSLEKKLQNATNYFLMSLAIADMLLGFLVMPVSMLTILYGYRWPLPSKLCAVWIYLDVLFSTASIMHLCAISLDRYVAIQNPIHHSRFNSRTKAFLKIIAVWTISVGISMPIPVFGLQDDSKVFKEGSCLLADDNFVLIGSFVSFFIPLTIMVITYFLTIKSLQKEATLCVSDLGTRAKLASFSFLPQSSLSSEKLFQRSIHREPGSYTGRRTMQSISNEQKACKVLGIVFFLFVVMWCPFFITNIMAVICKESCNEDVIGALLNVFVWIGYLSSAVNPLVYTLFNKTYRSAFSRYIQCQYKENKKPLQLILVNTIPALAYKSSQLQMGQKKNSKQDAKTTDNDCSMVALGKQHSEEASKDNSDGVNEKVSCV

Q: For `COc1cc(CCNCc2cccc(O)c2)c(OC)cc1Br`, which Ratio EC50 (Homo sapiens [1]) is on record?
A: The Ratio EC50 was 12.

Q: What about the Ratio EC50 (Homo sapiens [2]) of the same molecule?
A: Its Ratio EC50 is 15.

Q: How did the Activity [3] turn out when `COc1cc(CCNC2COc3ccccc32)c(OC)cc1C#N` (racemic) was run?
A: Its Activity is “Active”.

Q: With `COc1cc(CCNCc2ccccc2F)c(OC)cc1C#N` as the molecule, how does the Ratio EC50 (Homo sapiens [2]) read?
A: The Ratio EC50 was 3.
